Assay results taken from paper PMC9865085, “Expression and Characterisation of the First Snail-Derived UDP-Gal: Glycoprotein-N-acetylgalactosamine β-1,3-Galactosyltransferase (T-Synthase) from Biomphalaria glabrata” (Molecules, 2023).

What was measured:
[1] = target: T1, T-synthase (UDP-Gal: glycoprotein-N-acetylgalactosamine β-1,3-galactosyltransferase) from Biomphalaria glabrata (Biomphalaria glabrata, UniProt A0A2C9JXL4); experiment: galactosyl transfer to pNP-α-GalNAc, HPLC; type: biochemical; conditions: 5 nmol added to 20 μL assay; 200 μM UDP-Gal, 1 mM pNP-α-GalNAc, 20 mM MnCl2, 2 mM ATP, 50 mM MES pH 6.5, 37 °C, 2 h; bead-bound enzyme or lysate not stated for this test
T1 construct: full-length 388 aa type II transmembrane protein, C-terminal His-tag, codon-optimised synthetic gene, expressed in Sf9 cells; lysate or captured on anti-His magnetic beads
T1 sequence (A0A2C9JXL4 1-388): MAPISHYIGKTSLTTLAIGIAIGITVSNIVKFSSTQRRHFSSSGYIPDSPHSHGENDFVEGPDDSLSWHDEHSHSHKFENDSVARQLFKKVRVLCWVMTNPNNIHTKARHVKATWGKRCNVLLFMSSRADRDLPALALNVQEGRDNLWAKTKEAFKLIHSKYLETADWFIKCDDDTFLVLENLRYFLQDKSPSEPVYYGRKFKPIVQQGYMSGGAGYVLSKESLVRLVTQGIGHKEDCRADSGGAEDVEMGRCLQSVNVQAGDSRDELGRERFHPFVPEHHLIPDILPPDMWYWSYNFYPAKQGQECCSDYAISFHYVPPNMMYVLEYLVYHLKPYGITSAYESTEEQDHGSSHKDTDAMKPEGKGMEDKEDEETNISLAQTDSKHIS

[2] = target: T1, T-synthase (UDP-Gal: glycoprotein-N-acetylgalactosamine β-1,3-galactosyltransferase) from Biomphalaria glabrata; experiment: galactosyl transfer, HPLC; product linkage by NMR; type: cell-based; conditions: acceptor, 1 mM; 200 μM UDP-Gal, 20 mM MnCl2, 2 mM ATP, 50 mM MES pH 6.5, 37 °C, 2 h; Sf9 lysate, control lysate inactive

% inhibition at 5 nmol [1]	SMILES	galactosyl transfer, HPLC; product linkage by NMR [2]
~ 50%	O=c1ccn([C@@H]2O[C@H](COP(=O)(O)O)[C@@H](O)[C@H]2O)c(=O)[nH]1 [UMP]	
~ 50%	O=c1ccn([C@@H]2O[C@H](COP(=O)(O)OP(=O)(O)OP(=O)(O)O)[C@@H](O)[C@H]2O)c(=O)[nH]1 [UTP]	
	CC(=O)N[C@H]1[C@@H](Oc2ccc([N+](=O)[O-])cc2)O[C@H](CO)[C@H](O)[C@@H]1O [pNP-α-GalNAc]	the identity of the product pNP-α-GalNAc-β-1,3-Gal was clearly confirmed
